Data as given in patent publication US8399681B2, “Substituted aminothiazolone indazoles as estrogen related receptor-alpha modulators” (Janssen Pharmaceutica NV, priority 2009, dated 2013).

Each molecule was assayed against T1, ERR1 (also known as ERR-α or ERR-1) (Homo sapiens, UniProt P11474) (assay: TR-FRET assay (disruption of co-activator peptide binding)). Conditions: 6His-tagged ERR1 LBD, GST-hSRC2 co-activator polypeptide; average of 3 independent experiments.
T1 sequence (P11474 193-421 limits assumed): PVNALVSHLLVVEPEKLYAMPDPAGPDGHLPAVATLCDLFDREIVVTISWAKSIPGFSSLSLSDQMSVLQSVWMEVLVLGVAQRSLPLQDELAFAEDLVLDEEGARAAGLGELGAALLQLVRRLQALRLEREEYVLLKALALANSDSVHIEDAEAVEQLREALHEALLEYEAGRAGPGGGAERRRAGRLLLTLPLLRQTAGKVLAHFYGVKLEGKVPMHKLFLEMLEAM
Assay type: biochemical
Procedure: Time-Resolved Fluorescence Resonance Energy Transfer (TR-FRET) experiments were performed to examine the functional response of ERR1 (also known as ERR-α or ERR-1) ligands. The TR-FRET assay described herein relied on the conformation of ERR1 for binding to a co-activator peptide: when a test compound binds to ERR1 and alters its conformation, it can disrupt the binding of the co-activator peptide. The components of this homogeneous secondary assay included: the ^6His-tagged-ERR1LBD, a GST-labeled-hSRC2 co-activator polypeptide and a fluorescent donor/acceptor pair from CIS bio international htrf/bioassays (Bedford, Mass.) using both an α-GST Europium Cryptate (Eu) label and an α^6His-XL665 (allophycocyanin) fluorophore.
For TR-FRET measurements, the reaction was buffered in 25 mM Tris pH 8, 2.5 mM Hepes, 20 mM KCl, 1 mM DTT, and 0.05 mg/mL BSA (-lipids). The final concentrations of reagents were 6 nM of ERR1LBD, 6 nM GST-SRC-2 peptide, 30 nM Eu cryptate, and 7.5 nM XL665. Reactions were allowed to reach equilibrium at 25° C. for 4-18 hours before collecting data on the Analyst from LJL Biosystems (Molecular Devices Sunnyvale, Calif.). As a time-resolved method, the samples were excited at […] and emission was collected for 1 ms at both 615 and 665 nm with delays of 400 and 75 μs, respectively. Dose response curves were fitted using a hyperbolic equation and the data reported is the average of 3 independent experiments.

| SMILES | EC50 [nM] |
| --- | --- |
| CN[C@H]1CCN(C2=NC(=O)/C(=C/c3ccc4c(cnn4Cc4ccc(Cl)cc4C(F)(F)F)c3)S2)C1 (stereo in doubt) [Example 115, 5-[1-(4-Chloro-2-trifluoromethyl-benzyl)-1H-indazol-5-ylmethylene]-2-(3-methylamino-pyrrolidin-1-yl)-thiazol-4-one] | 8.4 |
| O=C1N=C(N2CC[C@H](NC(=O)C(F)(F)F)C2)S/C1=C\c1ccc2c(cnn2Cc2ccc(Cl)cc2C(F)(F)F)c1 (stereo in doubt) [Example 116, N-(1-{5-[1-(4-Chloro-2-trifluoromethyl-benzyl)-1H-indazol-5-ylmethylene]-4-oxo-4,5-dihydro-thiazol-2-yl}-pyrrolidin-3-yl)-2,2,2-trifluoro-acetamide] | 11 |
| CC[C@H]1CN(C2=NC(=O)/C(=C/c3ccc4c(cnn4Cc4ccc(Cl)cc4C(F)(F)F)c3)S2)CCN1 (stereo in doubt) [Example 123, 5-[1-(4-Chloro-2-trifluoromethyl-benzyl)-1H-indazol-5-ylmethylene]-2-(3-ethyl-piperazin-1-yl)-thiazol-4-one] | 5 |
| CN1CCN(C2=NC(=O)/C(=C/c3ccc4c(cnn4Cc4ccc(C(F)(F)F)cc4C(F)(F)F)c3)S2)CC1 [Compound 2, 5-[1-(2,4-Bis-trifluoromethyl-benzyl)-1H-indazol-5-ylmethylene]-2-(4-methyl-piperazin-1-yl)-thiazol-4-one] | 7.2 |
| O=C1N=C(N2CCOCC2)S/C1=C\c1ccc2c(cnn2Cc2ccc(C(F)(F)F)cc2C(F)(F)F)c1 [Compound 3, 5-[1-(2,4-Bis-trifluoromethyl-benzyl)-1H-indazol-5-ylmethylene]-2-morpholin-4-yl-thiazol-4-one] | 21 |
| O=C1N=C(N2CCN(CCO)CC2)S/C1=C\c1ccc2c(cnn2Cc2ccc(F)cc2C(F)(F)F)c1 [Compound 4, 5-[1-(4-Fluoro-2-trifluoromethyl-benzyl)-1H-indazol-5-ylmethylene]-2-[4-(2-hydroxy-ethyl)-piperazin-1-yl]-thiazol-4-one] | 92 |
| CC(=O)N1CCN(C2=NC(=O)/C(=C/c3ccc4c(cnn4Cc4ccc(F)cc4C(F)(F)F)c3)S2)CC1 [Compound 5, 2-(4-Acetyl-piperazin-1-yl)-5-[1-(4-fluoro-2-trifluoromethyl-benzyl)-1H-indazol-5-ylmethylene]-thiazol-4-one] | 42 |
| O=C1N=C(N2CCN(CCO)CC2)S/C1=C\c1ccc2c(cnn2Cc2ccc(C(F)(F)F)cc2C(F)(F)F)c1 [Compound 6, 5-[1-(2,4-Bis-trifluoromethyl-benzyl)-1H-indazol-5-ylmethylene]-2-[4-(2-hydroxy-ethyl)-piperazin-1-yl]-thiazol-4-one] | 9 |
| O=C1N=C(N2CCNCC2)S/C1=C\c1ccc2c(cnn2Cc2ccc(C(F)(F)F)cc2C(F)(F)F)c1 [Compound 7, 5-[1-(2,4-Bis-trifluoromethyl-benzyl)-1H-indazol-5-ylmethylene]-2-piperazin-1-yl-thiazol-4-one] | 38 |
| CN1CCN(C2=NC(=O)/C(=C/c3ccc4c(cnn4Cc4ccc(Cl)cc4C(F)(F)F)c3)S2)CC1 [Compound 8, 5-[1-(4-Chloro-2-trifluoromethyl-benzyl)-1H-indazol-5-ylmethylene]-2-(4-methyl-piperazin-1-yl)-thiazol-4-one] | 7 |
| N#Cc1ccc(Cn2ncc3cc(/C=C4\SC(N5CCN(CCO)CC5)=NC4=O)ccc32)c(C(F)(F)F)c1 [Compound 9, 4-(5-{2-[4-(2-Hydroxy-ethyl)-piperazin-1-yl]-4-oxo-4H-thiazol-5-ylidenemethyl}-indazol-1-ylmethyl)-3-trifluoromethyl-benzonitrile] | 57.5 |
| CN1CCN(C2=NC(=O)/C(=C/c3ccc4c(cnn4Cc4ccc(C#N)cc4C(F)(F)F)c3)S2)CC1 [Compound 10, 4-{5-[2-(4-Methyl-piperazin-1-yl)-4-oxo-4H-thiazol-5-ylidenemethyl]-indazol-1-ylmethyl}-3-trifluoromethyl-benzonitrile] | 199 |
| O=C1N=C(N2C[C@H](O)C[C@H]2C(=O)O)S/C1=C\c1ccc2c(cnn2Cc2ccc(Cl)cc2C(F)(F)F)c1 [Compound 11, 1-{5-[1-(4-Chloro-2-trifluoromethyl-benzyl)-1H-indazol-5-ylmethylene]-4-oxo-4,5-dihydro-thiazol-2-yl}-4-(R)-hydroxy-pyrrolidine-2-(S)-carboxylic acid] | 57 |
| O=C1CN(C2=NC(=O)/C(=C/c3ccc4c(cnn4Cc4ccc(Cl)cc4C(F)(F)F)c3)S2)CCN1 [Compound 12, 4-{5-[1-(4-Chloro-2-trifluoromethyl-benzyl)-1H-indazol-5-ylmethylene]-4-oxo-4,5-dihydro-thiazol-2-yl}-piperazin-2-one] | 4.6 |
| O=C1N=C(N2CCN(CCO)CC2)S/C1=C\c1ccc2c(cnn2Cc2ccc(Cl)cc2C(F)(F)F)c1 [Compound 13, 5-[1-(4-Chloro-2-trifluoromethyl-benzyl)-1H-indazol-5-ylmethylene]-2-[4-(2-hydroxy-ethyl)piperazin-1-yl]-thiazol-4-one] | 4.7 |
| O=C1N=C(N2CCN(CCO)CC2)S/C1=C\c1ccc2c(cnn2Cc2ccc(Cl)cc2Cl)c1 [Compound 14, 5-[1-(2,4-Dichloro-benzyl)-1H-indazol-5-ylmethylene]-2-[4-(2-hydroxy-ethyl)-piperazin-1-yl]thiazol-4-one] | 68 |
| CN1CCN(C2=NC(=O)/C(=C/c3ccc4c(cnn4Cc4ccc(S(C)(=O)=O)cc4C(F)(F)F)c3)S2)CC1 [Compound 15, 5-[1-(4-Methanesulfonyl-2-trifluoromethyl-benzyl)-1H-indazol-5-ylmethylene]-2-(4-methyl-piperazin-1-yl)-thiazol-4-one] | 530 |
| CS(=O)(=O)c1ccc(Cn2ncc3cc(/C=C4\SC(N5CCN(CCO)CC5)=NC4=O)ccc32)c(C(F)(F)F)c1 [Compound 16, 2-[4-(2-Hydroxy-ethyl)-piperazin-1-yl]-5-[1-(4-methanesulfonyl-2-trifluoromethyl-benzyl)-1H-indazol-5-ylmethylene]-thiazol-4-one] | 450 |
| CN1CCN(C2=NC(=O)/C(=C/c3ccc4c(cnn4Cc4ccc(S(C)(=O)=O)cc4Cl)c3)S2)CC1 [Compound 17, 5-[1-(2-Chloro-4-methanesulfonyl-benzyl)-1H-indazol-5-ylmethylene]-2-(4-methyl-piperazin-1-yl)-thiazol-4-one] | > 4000 |
| CS(=O)(=O)c1ccc(Cn2ncc3cc(/C=C4\SC(N5CCNC(=O)C5)=NC4=O)ccc32)c(Cl)c1 [Compound 18, 4-{5-[1-(2-Chloro-4-methanesulfonyl-benzyl)-1H-indazol-5-ylmethylene]-4-oxo-4,5-dihydro-thiazol-2-yl}-piperazin-2-one] | > 4000 |
| CS(=O)(=O)c1ccc(Cn2ncc3cc(/C=C4\SC(N5CCN(CCO)CC5)=NC4=O)ccc32)c(Cl)c1 [Compound 19, 5-[1-(2-Chloro-4-methanesulfonyl-benzyl)-1H-indazol-5-ylmethylene]-2-[4-(2-hydroxy-ethyl)-piperazin-1-yl]-thiazol-4-one] | 350 |
| CN1CCN(C2=NC(=O)/C(=C/c3ccc4c(cnn4Cc4ccc(C(N)=O)cc4C(F)(F)F)c3)S2)CC1 [Compound 20, 4-{5-[2-(4-Methyl-piperazin-1-yl)-4-oxo-4H-thiazol-5-ylidenemethyl]-indazol-1-ylmethyl}-3-trifluoromethyl-benzamide] | 300 |
| COc1ccc(Cn2ncc3cc(/C=C4\SC(N5CCN(C)CC5)=NC4=O)ccc32)c(C(F)(F)F)c1 [Compound 21, 5-[1-(4-Methoxy-2-trifluoromethyl-benzyl)-1H-indazol-5-ylmethylene]-2-(4-methyl-piperazin-1-yl)-thiazol-4-one] | 3 |
| CN1CCN(C2=NC(=O)/C(=C/c3ccc4c(cnn4Cc4ccc(O)cc4C(F)(F)F)c3)S2)CC1 [Compound 22, 5-[1-(4-Hydroxy-2-trifluoromethyl-benzyl)-1H-indazol-5-ylmethylene]-2-(4-methyl-piperazin-1-yl)-thiazol-4-one] | 11.4 |
| CN1CCN(C2=NC(=O)/C(=C/c3ccc4c(cnn4Cc4ccc(OS(C)(=O)=O)cc4C(F)(F)F)c3)S2)CC1 [Compound 23, Methanesulfonic acid 4-{5-[2-(4-methyl-piperazin-1-yl)-4-oxo-4H-thiazol-5-ylidenemethyl]-indazol-1-ylmethyl}-3-trifluoromethyl-phenyl ester] | 10.4 |
| COCCOc1ccc(Cn2ncc3cc(/C=C4\SC(N5CCN(C)CC5)=NC4=O)ccc32)c(C(F)(F)F)c1 [Compound 24, 5-{1-[4-(2-Methoxy-ethoxy)-2-trifluoromethyl-benzyl]-1H-indazol-5-ylmethylene}-2-(4-methyl-piperazin-1-yl)-thiazol-4-one] | 520 |
